Patent US20240408169A1 (priority 2023, published 2024)
*1 amine or outer side, *2 acyl side, *3 side chain or, on linkers, in order; H or OH if unused. Where a SMILES comes first, the peptide text is derived from it. Bridges are numbered along the chain shown (N, C = ends). [ ]: non-standard residue; d: D form. The star is where a group is joined. NMePhe(2-(4-MorPh),5-Cl) = CN[C@@H](Cc1cc(Cl)ccc1-c1ccc(N2CCOCC2)cc1)C(=O)O; X1 = C[C@H]1CN(c2ccc(-c3ccc(Cl)cc3C[C@@H](C(=O)[*:2])N(C)[*:1])cc2)CCN1C; X31 = CN1CCC(c2ccc(-c3ccc(Cl)cc3C[C@@H](C(=O)[*:2])N(C)[*:1])cc2)CC1; X55 = CN([C@@H](Cc1cc(Cl)ccc1-c1cnn(CCN2CCOCC2)c1)C(=O)[*:2])[*:1]; NMePhe(5-Cl,2-O(2-Pym)) = CN[C@@H](Cc1cc(Cl)ccc1Oc1ncccn1)C(=O)O; X84 = CC(=O)N1CCC(c2ccc(Cl)cc2C[C@@H](C(=O)[*:2])N(C)[*:1])CC1; NMehhhLys(Me) = CN([C@@H](CCCCCCCN(C)[*:3])C(=O)[*:2])[*:1]; Cyclobutanecarbonyl(1-CF3) = O=C(C1(C(F)(F)F)CCC1)*; cBuCO(3,3-F2-1-CF3) = O=C(C1(C(F)(F)F)CC(F)(F)C1)*; Pro(trans-4-F) = O=C(O)[C@@H]1C[C@@H](F)CN1; Gly(cPr) = N[C@H](C(=O)O)C1CC1

Tests used:
CyclinA2/CDK2 = molecular target: T1, CyclinA2/CDK2 (Homo sapiens, UniProt P20248); experiment: Fluorescence Polarization (FP) competitive binding assay, Cyclin A2/Cdk2; settings: 8 nM Cyclin A2/Cdk2, 2 nM FAM probe; average of 2-3 independent experiments; read-out: Cyclin A FP IC50;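 also: plates equilibrated two hours at room temperature before polarization reading, IC50 fitted from eight-concentration compound titration curves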
T1 construct: purchased CRELUX Protein Services

CyclinB1/CDK1 = molecular target: T2, CyclinB1/CDK1 (Homo sapiens, UniProt P14635); experiment: Fluorescence Polarization (FP) competitive binding assay, Cyclin B1/Cdk1; settings: 10 nM Cyclin B1/Cdk1, 2 nM FAM probe; average of 2-3 independent experiments; read-out: Cyclin B FP IC50;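 also: fluorescence polarization read after equilibration at room temperature, with IC50 taken from serially diluted dose-response curves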
T2 construct: purchased Eurofins, discovery 14-450

CyclinE1/CDK2 = molecular target: T3, CyclinE1/CDK2 (Homo sapiens, UniProt P24864); experiment: Fluorescence Polarization (FP) competitive binding assay, Cyclin E1/Cdk2; settings: 10 nM Cyclin E1/Cdk2, 2 nM FAM probe; average of 2-3 independent experiments; read-out: Cyclin E FP IC50;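 also: readings taken after two-hour equilibration at room temperature in HEPES buffer with NaCl, DTT, NP-40 and BSA, IC50 fitted from eight-concentration serial dilution series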
T3 construct: purchased Eurofins, discovery 14-475

WI-38 cells = experiment: MTT proliferation assay, WI-38; type: cell-based; settings: 3 days compound exposure, 1:3 serial dilution starting at 10 μM;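 also: Eight- or ten-point dilution series, with exposure length chosen to span about three to four cell doublings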
NCI-H1048 cells = experiment: MTT proliferation assay, NCI-H1048; type: cell-based; settings: 5 days compound exposure, 1:3 serial dilution starting at 10 μM;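 also: Dose-response in 96-well plates over 8 or 10 concentration points, with exposure spanning 3-4 cell doublings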
OVCAR3 cells = experiment: MTT proliferation assay, OVCAR3; type: cell-based; settings: 5 days compound exposure, 1:3 serial dilution starting at 10 μM;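 also: compound given as an 8- or 10-point series, one day after plating, with exposure covering roughly 3-4 cell doublings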

**Q.** What does the source list for CC(C)C[C@@H]1NC(=O)[C@@H](N(C)C(=O)[C@@H](NC(=O)[C@@H]2C[C@@H](F)CN2C(=O)C2(C(F)(F)F)CC(F)(F)C2)C2CC2)CCCCCCCN(C)C(=O)[C@H](Cc2cc(Cl)ccc2-c2cnn(CCN3CCOCC3)c2)N(C)C1=O [Example 256] ({cBuCO(3,3-F2-1-CF3)}-[Pro(trans-4-F)][Gly(cPr)][NMehhhLys(Me)]L[X55]; lactam 3-C)?
**A.** IC50 (CyclinA2/CDK2): 30 nM; IC50 (CyclinB1/CDK1): 20 nM; IC50 (CyclinE1/CDK2): 480 nM; GI50 (WI-38 cells): 13200 nM; GI50 (NCI-H1048 cells): 10 nM; GI50 (OVCAR3 cells): 10 nM

**Q.** CC(C)C[C@@H]1NC(=O)[C@@H](N(C)C(=O)[C@@H](NC(=O)[C@@H]2C[C@@H](F)CN2C(=O)C2(C(F)(F)F)CCC2)C2CC2)CCCCCCCN(C)C(=O)[C@H](Cc2cc(Cl)ccc2Oc2ncccn2)N(C)C1=O [Example 159] ({Cyclobutanecarbonyl(1-CF3)}-[Pro(trans-4-F)][Gly(cPr)][NMehhhLys(Me)]L[NMePhe(5-Cl,2-O(2-Pym))]; lactam 3-C) was tested. Which IC50 (CyclinA2/CDK2) did it give?
**A.** Its IC50 is 80 nM.

**Q.** What about the IC50 (CyclinB1/CDK1) of the same compound?
**A.** Its IC50 is 20 nM.

**Q.** What about the IC50 (CyclinE1/CDK2) of the same compound?
**A.** Its IC50 is 200 nM.

**Q.** And the GI50 (WI-38 cells)?
**A.** Its GI50 is 9450 nM.

**Q.** What about the GI50 (NCI-H1048 cells) of the same compound?
**A.** The GI50 was 10 nM.

**Q.** And the GI50 (OVCAR3 cells)?
**A.** The GI50 was 20 nM.

**Q.** For CC(C)C[C@@H]1NC(=O)[C@@H](N(C)C(=O)[C@@H](NC(=O)[C@@H]2C[C@@H](F)CN2C(=O)C2(C(F)(F)F)CCC2)C2CC2)CC=CCCCCNC(=O)[C@H](Cc2cc(Cl)ccc2-c2cnn(C3COC3)c2)N(C)C1=O [Example 32], which IC50 (CyclinA2/CDK2) is on record?
**A.** The IC50 was 50 nM.

**Q.** And the IC50 (CyclinB1/CDK1)?
**A.** Its IC50 is 20 nM.

**Q.** And the IC50 (CyclinE1/CDK2)?
**A.** Its IC50 is 590 nM.

**Q.** And the GI50 (WI-38 cells)?
**A.** The GI50 was 11800 nM.

**Q.** And the GI50 (NCI-H1048 cells)?
**A.** The GI50 was 140 nM.

**Q.** And the GI50 (OVCAR3 cells)?
**A.** Its GI50 is 250 nM.

**Q.** What does the source list for CC(C)C[C@@H]1NC(=O)[C@@H](N(C)C(=O)[C@@H](NC(=O)[C@@H]2C[C@@H](F)CN2C(=O)C2(C(F)(F)F)CC(F)(F)C2)C2CC2)CCCCCCCN(C)C(=O)[C@H](Cc2cc(Cl)ccc2-c2ccc(C3CCN(C)CC3)cc2)N(C)C1=O [Example 358] ({cBuCO(3,3-F2-1-CF3)}-[Pro(trans-4-F)][Gly(cPr)][NMehhhLys(Me)]L[X31]; lactam 3-C)?
**A.** IC50 (CyclinA2/CDK2): 20 nM; IC50 (CyclinB1/CDK1): 20 nM; IC50 (CyclinE1/CDK2): 550 nM; GI50 (WI-38 cells): 2130 nM; GI50 (NCI-H1048 cells): 10 nM; GI50 (OVCAR3 cells): 10 nM

**Q.** For CC(C)C[C@@H]1NC(=O)[C@@H](N(C)C(=O)[C@@H](NC(=O)[C@@H]2C[C@@H](F)CN2C(=O)C2(C(F)(F)F)CC(F)(F)C2)C2CC2)CCCCCCCN(C)C(=O)[C@H](Cc2cc(Cl)ccc2-c2ccc(N3CCN(C)[C@@H](C)C3)cc2)N(C)C1=O [Example 409] ({cBuCO(3,3-F2-1-CF3)}-[Pro(trans-4-F)][Gly(cPr)][NMehhhLys(Me)]L[X1]; lactam 3-C), which IC50 (CyclinA2/CDK2) is on record?
**A.** Its IC50 is 20 nM.

**Q.** What about the IC50 (CyclinB1/CDK1) of the same compound?
**A.** The IC50 was 20 nM.

**Q.** What about the IC50 (CyclinE1/CDK2) of the same compound?
**A.** Its IC50 is 670 nM.

**Q.** What about the GI50 (WI-38 cells) of the same compound?
**A.** The GI50 was 2460 nM.

**Q.** And the GI50 (NCI-H1048 cells)?
**A.** The GI50 was 10 nM.

**Q.** And the GI50 (OVCAR3 cells)?
**A.** The GI50 was 10 nM.

**Q.** Which IC50 (CyclinA2/CDK2) does the source give for CC(=O)N1CCC(c2ccc(Cl)cc2C[C@H]2C(=O)N(C)CCCCCCC[C@H](N(C)C(=O)[C@@H](NC(=O)[C@@H]3C[C@@H](F)CN3C(=O)C3(C(F)(F)F)CC(F)(F)C3)C3CC3)C(=O)N[C@@H](CC(C)C)C(=O)N2C)CC1 [Example 52] ({cBuCO(3,3-F2-1-CF3)}-[Pro(trans-4-F)][Gly(cPr)][NMehhhLys(Me)]L[X84]; lactam 3-C) here?
**A.** The IC50 was 40 nM.

**Q.** What about the IC50 (CyclinB1/CDK1) of the same compound?
**A.** The IC50 was 20 nM.

**Q.** What about the IC50 (CyclinE1/CDK2) of the same compound?
**A.** Its IC50 is 1130 nM.

**Q.** What about the GI50 (WI-38 cells) of the same compound?
**A.** The GI50 was 13100 nM.

**Q.** What about the GI50 (NCI-H1048 cells) of the same compound?
**A.** Its GI50 is 10 nM.

**Q.** What about the GI50 (OVCAR3 cells) of the same compound?
**A.** The GI50 was 10 nM.

**Q.** With CC(C)C[C@@H]1NC(=O)[C@@H](N(C)C(=O)[C@@H](NC(=O)[C@@H]2C[C@@H](F)CN2C(=O)C2(C(F)(F)F)CC(F)(F)C2)C2CC2)CCCCCCCN(C)C(=O)[C@H](Cc2cc(Cl)ccc2-c2ccc(N3CCOCC3)cc2)N(C)C1=O [Example 261] ({cBuCO(3,3-F2-1-CF3)}-[Pro(trans-4-F)][Gly(cPr)][NMehhhLys(Me)]L[NMePhe(2-(4-MorPh),5-Cl)]; lactam 3-C) as the compound, how does the IC50 (CyclinA2/CDK2) read?
**A.** The IC50 was 20 nM.

**Q.** What about the IC50 (CyclinB1/CDK1) of the same compound?
**A.** Its IC50 is 20 nM.

**Q.** What about the IC50 (CyclinE1/CDK2) of the same compound?
**A.** Its IC50 is 430 nM.

**Q.** And the GI50 (WI-38 cells)?
**A.** The GI50 was 14100 nM.

**Q.** And the GI50 (NCI-H1048 cells)?
**A.** Its GI50 is 10 nM.

**Q.** And the GI50 (OVCAR3 cells)?
**A.** The GI50 was 10 nM.
